Reference: PubChem BioAssay AID2060488 (Molecular Pharmacology Branch, DTP, NCI, 2025)

Tested on: 966289-007-R4-J1-PDC complex spheroid viability
Experiment: Anticancer human tumor 966289-007-R4-J1-PDC patient-derived pancreatic adenocarcinoma cell line growth inhibition [GQUAD]
Conditions: for IC50: curve of first compound; for viability, T/C: stronger effect = lower value
Text: DNA G-quadruplex Stabilizer Agents in Combinations in Complex Spheroids
A high-throughput screen of multi-cell type tumor spheroids was designed to identify active combinations of DNA G-quadruplex stabilizer agents and targeted small molecules. Complex spheroids include a stromal component modeled by human endothelial cells (HUVEC) and fibroblasts modeled by human mesenchymal stem cells (MSCs). The concentration ranges selected for each drug and investigational agent were based upon clinically achievable concentrations if the clinical Cmax of the agent was known.
Compounds. The drugs and investigational agents: pidnarulex (CX-5461; NSC782164), APTO-253 (NSC789042), BRACO-19 (NSC847499), peposertib (NSC802822), ceralasertib (NSC780249), elimusertib (NSC800525), camonsertib (NSC841442), AZD-1390 (NSC803789), olaparib (NSC753686), talazoparib (NSC767125), ART-558 (NSC835418), sotorasib (NSC818433), MRTX-1133 (NSC836407), SN-38 (NSC673596), topotecan (NSC609699), etoposide (NSC141540), doxorubicin (NSC123127), gemcitabine (NSC613327), 5-fluorouracil (NSC19893), paclitaxel (NSC125973), vemurafenib (NSC761431), panobinostat (NSC761190), R-306465 (JNJ-16241199; NSC773264), adavosertib (NSC754352), TP-3654 (NSC805149), carboplatin (NSC241240), KSQ-4279 (NSC840948), and staurosporine (NSC755774) were obtained from the National Cancer Institute (NCI) Developmental Therapeutics Program Chemical Repository (34). The FDA-approved anticancer drug set is available from the NCI Developmental Therapeutics Program. […] The stock solutions were prepared in dimethyl sulfoxide (DMSO, Sigma-Aldrich, St. Louis, MO, cat. D2650) at 800-fold the tested concentration and stored at -70 degrees C prior to their use. All drugs and investigational agents were tested over a range starting from a high concentration at or near the clinical Cmax and decreasing in half-log increments. If the clinical Cmax for an agent had not been determined, the highest concentration tested was 10 microM.
2.3 Cell Culture. All cells were maintained in an incubator at 37 degrees C and 5% CO2 with 95% humidity. The PDC lines were cultured according to standard operating procedures established by the NCI PDMR. All PDCs were thawed and cultured in Matrigel-coated flasks prepared with a working solution of 1X Ham's F-12 nutrient mix, without supplementation (Invitrogen, cat. 11765054), 100 U/mL penicillin-streptomycin (Invitrogen, cat. 15140122), and 2.5% Matrigel (Corning Inc., cat. 354248) for the first three passages. The 857933-349-R-J2-PDC line was cultured in 6C/Colon 1B media, which includes advanced DMEM/F-12 (Thermo Fisher Scientific, cat. 12634028), 10 mM HEPES (Thermo Fisher Scientific, cat. 15630080), 1X GlutaMAX supplement (Thermo Fisher Scientific, cat. 35050061), 0.1 mg/mL primocin (InvivoGen, cat. ant-pm-2), 10% defined fetal bovine serum, heat inactivated (HyClone Laboratories Inc., cat. SH30070.03HI), 50% L-WRN conditioned media (ATCC, cat. CRL-3276), 1.25 mM N-Acetyl-L-cysteine (Sigma-Aldrich, cat. A9165), 10 mM nicotinamide (Sigma-Aldrich, cat. N0636), 1X B-27 supplement (Thermo Fisher Scientific, cat. 17504044), 1X N-2 supplement (Thermo Fisher Scientific, cat. 17502048), 10 microM Y-27632 dihydrochloride (Tocris Bioscience, cat. 1254), and 50 ng/mL human EGF recombinant protein (Thermo Fisher Scientific, cat. PHG0311). The 485176-168-R4-J1-PDC line was cultured in Panc media, which includes all 6C/Colon 1B media components plus 100 ng/mL human FGF-10 (Thermo Fisher Scientific, cat. 100-26), 500 nM SB-431542 (Selleckchem, cat. S1067), and gastrin (Tocris, cat. 3006).
[…]

[1] = second compound 0.0316 µM, first compound 0.0316 µM
[2] = second compound 0.0316 µM, first compound 0.1 µM
[3] = second compound 0.0316 µM, first compound 0.316 µM
[4] = second compound 0.0316 µM, first compound 1 µM
[5] = second compound 0.0316 µM, first compound 3.16 µM
[6] = second compound 0.0316 µM, first compound 10 µM
[7] = second compound 0.1 µM, first compound 0.0316 µM
[8] = second compound 0.1 µM, first compound 0.1 µM
[9] = second compound 0.1 µM, first compound 0.316 µM
[10] = second compound 0.1 µM, first compound 1 µM
[11] = second compound 0.1 µM, first compound 3.16 µM
[12] = second compound 0.1 µM, first compound 10 µM
[13] = second compound 0.316 µM, first compound 0.0316 µM
[14] = second compound 0.316 µM, first compound 0.1 µM
[15] = second compound 0.316 µM, first compound 0.316 µM
[16] = second compound 0.316 µM, first compound 1 µM
[17] = second compound 0.316 µM, first compound 3.16 µM
[18] = second compound 0.316 µM, first compound 10 µM
[19] = second compound 1 µM, first compound 0.0316 µM
[20] = second compound 1 µM, first compound 0.1 µM
[21] = second compound 1 µM, first compound 0.316 µM
[22] = second compound 1 µM, first compound 1 µM
[23] = second compound 1 µM, first compound 3.16 µM
[24] = second compound 1 µM, first compound 10 µM
[25] = second compound 3.16 µM, first compound 0.0316 µM
[26] = second compound 3.16 µM, first compound 0.1 µM
[27] = second compound 3.16 µM, first compound 0.316 µM
[28] = second compound 3.16 µM, first compound 1 µM
[29] = second compound 3.16 µM, first compound 3.16 µM
[30] = second compound 3.16 µM, first compound 10 µM
[31] = second compound 10 µM, first compound 0.0316 µM
[32] = second compound 10 µM, first compound 0.1 µM
[33] = second compound 10 µM, first compound 0.316 µM
[34] = second compound 10 µM, first compound 1 µM
[35] = second compound 10 µM, first compound 3.16 µM
[36] = second compound 10 µM, first compound 10 µM
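Also: spheroids exposed to the agents for seven days before readout.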
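For viability, T/C in this document: percent viability relative to DMSO vehicle control wells taken as 100%.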

COc1cc(C2c3cc4c(cc3C(OC3OC5COC(C)OC5C(O)C3O)C3COC(=O)C23)OCO4)cc(OC)c1O (centres undefined) + CN(C)c1ccc(Nc2c3ccc(NC(=O)CCN4CCCC4)cc3nc3cc(NC(=O)CCN4CCCC4)ccc23)cc1 showed an IC50 (second compound 0.0316 µM) of 0.3 µM, an IC50 (second compound 0.1 µM) of 0.301 µM and an IC50 (second compound 0.316 µM) of 0.271 µM. The IC50 (second compound 1 µM) was 0.276 µM, the IC50 (second compound 3.16 µM) was 0.27 µM and the IC50 (second compound 10 µM) was 0.202 µM. It also gave a viability, T/C [1] of 115%, a viability, T/C [2] of 105% and a viability, T/C [3] of 46.6%. The viability, T/C [4] was 9.16%, the viability, T/C [5] was 1.79% and the viability, T/C [6] was 0.77%. For the same molecule, the viability, T/C [7] was 111%, the viability, T/C [8] was 107% and the viability, T/C [9] was 46.6%. For the same molecule, the viability, T/C [10] was 9.53%, the viability, T/C [11] was 1.99% and the viability, T/C [12] was 0.86%. For the same molecule, the viability, T/C [13] was 101%, the viability, T/C [14] was 104% and the viability, T/C [15] was 41.9%. The viability, T/C [16] was 5.72%, the viability, T/C [17] was 2.08% and the viability, T/C [18] was 0.76%. For the same molecule, the viability, T/C [19] was 104%, the viability, T/C [20] was 109% and the viability, T/C [21] was 42.4%. The viability, T/C [22] was 6.82%, the viability, T/C [23] was 1.89% and the viability, T/C [24] was 1.07%. The viability, T/C [25] was 96.1%, the viability, T/C [26] was 108% and the viability, T/C [27] was 41.8%. For the same molecule, the viability, T/C [28] was 6.04%, the viability, T/C [29] was 2.44% and the viability, T/C [30] was 0.87%. For the same molecule, the viability, T/C [31] was 108%, the viability, T/C [32] was 98.1% and the viability, T/C [33] was 19.4%. It also gave a viability, T/C [34] of 3.24%, a viability, T/C [35] of 1.49% and a viability, T/C [36] of 0.61%.
Nc1ccn(C2OC(CO)C(O)C2(F)F)c(=O)n1 (centres undefined) + CN(C)c1ccc(Nc2c3ccc(NC(=O)CCN4CCCC4)cc3nc3cc(NC(=O)CCN4CCCC4)ccc23)cc1 showed an IC50 (second compound 0.0316 µM) of less than 0.0316 µM, an IC50 (second compound 0.1 µM) of less than 0.0316 µM and an IC50 (second compound 0.316 µM) of less than 0.0316 µM. The IC50 (second compound 1 µM) was less than 0.0316 µM, the IC50 (second compound 3.16 µM) was less than 0.0316 µM and the IC50 (second compound 10 µM) was less than 0.0316 µM. For the same molecule, the viability, T/C [1] was 14%, the viability, T/C [2] was 1.18% and the viability, T/C [3] was 0.88%. The viability, T/C [4] was 0.96%, the viability, T/C [5] was 0.85% and the viability, T/C [6] was 0.89%. For the same molecule, the viability, T/C [7] was 10.8%, the viability, T/C [8] was 2.18% and the viability, T/C [9] was 0.86%. It also gave a viability, T/C [10] of 1.06%, a viability, T/C [11] of 0.89% and a viability, T/C [12] of 1.03%. For the same molecule, the viability, T/C [13] was 8.99%, the viability, T/C [14] was 1.42% and the viability, T/C [15] was 0.99%. It also gave a viability, T/C [16] of 0.97%, a viability, T/C [17] of 0.84% and a viability, T/C [18] of 0.93%. For the same molecule, the viability, T/C [19] was 9.78%, the viability, T/C [20] was 1.73% and the viability, T/C [21] was 1.22%. For the same molecule, the viability, T/C [22] was 1.01%, the viability, T/C [23] was 0.89% and the viability, T/C [24] was 0.91%. The viability, T/C [25] was 8.33%, the viability, T/C [26] was 1.17% and the viability, T/C [27] was 1.01%. For the same molecule, the viability, T/C [28] was 0.9%, the viability, T/C [29] was 1.5% and the viability, T/C [30] was 0.99%. It also gave a viability, T/C [31] of 5.04%, a viability, T/C [32] of 1.02% and a viability, T/C [33] of 1.04%. For the same molecule, the viability, T/C [34] was 0.83%, the viability, T/C [35] was 0.85% and the viability, T/C [36] was 0.85%.
